Converted amounts (≈) assume the structure as drawn. Values belong to the molecule of their own block, whether it stands above or below them.
Columns and labels:
Experiment in all cases: ≥ marks a high value that may be exact or a test limit, other limits are often not marked, values filed in µg/mL are converted to µM
[1] = tested on: Listeria monocytogenes EGD
[2] = tested on: Pseudomonas aeruginosa CMCCB 1010
[3] = tested on: Enterococcus faecalis ATCC 29212
[4] = tested on: Escherichia coli 37
[5] = tested on: Staphylococcus aureus ATCC 25923
[6] = tested on: Klebsiella pneumoniae ATCC 700603
[7] = tested on: Candida parapsilosis ATCC 22019
[8] = tested on: Escherichia coli ATCC 25922
[9] = tested on: Shigella dysenteriae
[10] = tested on: Candida albicans ATCC 2002
[11] = tested on: Klebsiella pneumoniae
[12] = tested on: Staphylococcus aureus 37
[13] = tested on: Pseudomonas aeruginosa
[14] = tested on: Enterobacter cloacae ATCC 13047
[15] = tested on: Candida albicans ATCC 90028
[16] = tested on: Pseudomonas aeruginosa ATCC 27853
[17] = tested on: Escherichia coli ATCC 35218
[18] = tested on: Klebsiella pneumoniae NDM-1
[19] = tested on: Escherichia coli UTI89
[20] = tested on: Enterobacter cloacae
[21] = tested on: Pseudomonas aeruginosa PAO1
[22] = tested on: Vibrio cholerae
[23] = tested on: Escherichia coli K-12
[24] = tested on: Pseudomonas aeruginosa PA214
[25] = tested on: Acinetobacter baumannii CR17
[26] = tested on: Staphylococcus aureus ATCC 33591
[27] = tested on: Acinetobacter baumannii ATCC 19606
[28] = tested on: Acinetobacter baumannii ATCC BAA-1605
[29] = tested on: Enterococcus faecium ATCC 700221
[30] = tested on: Escherichia coli BW25113
[31] = tested on: Escherichia coli BW25113 ΔsbmA
[32] = tested on: Escherichia coli
[33] = tested on: Salmonella enterica subsp. enterica serovar Typhimurium ATCC 14028
[34] = tested on: Staphylococcus aureus ATCC 43300
[35] = tested on: Bacillus cereus CGMCC 1.932
[36] = tested on: Bacillus subtilis CMCC 63501
[37] = tested on: Escherichia coli UB1005
[38] = tested on: Staphylococcus epidermidis ATCC 12228
[39] = tested on: Escherichia coli K99
[40] = tested on: Listeria monocytogenes CGMCC 1.1075
[41] = tested on: Salmonella enterica subsp. enterica serovar Pullorum ATCC 7913
[42] = tested on: Escherichia coli 078
[43] = tested on: Salmonella typhimurium ATCC 7731
[44] = tested on: Acinetobacter baumannii
[45] = tested on: Escherichia coli K88

SMILES: CC[C@H](C)[C@H](NC(=O)[C@H](Cc1cnc[nH]1)NC(=O)[C@@H](NC(=O)[C@H](CCCN=C(N)N)NC(=O)[C@H](CCCCN)NC(=O)[C@H](CCCN=C(N)N)NC(=O)[C@H](CCCCN)NC(=O)[C@H](CC(N)=O)NC(=O)[C@H](Cc1ccc(O)cc1)NC(=O)[C@H](CC(N)=O)NC(=O)[C@@H]1CCCN1C(=O)[C@H](CCCN=C(N)N)NC(=O)[C@@H](NC(=O)[C@@H](N)CS)[C@@H](C)O)[C@@H](C)CC)C(=O)NCC(=O)O [CTRPNYNKRKRIHIG]
MIC [1]: 5.76 µM (≈ 10.7 µg/mL)

SMILES: CC[C@H](C)[C@H](NC(=O)[C@@H](NC(=O)[C@@H]1CCCN1C(=O)[C@H](CC(C)C)NC(=O)[C@@H](N)Cc1ccccc1)[C@@H](C)CC)C(=O)NCC(=O)N[C@@H](CCCCN)C(=O)N[C@@H](CC(C)C)C(=O)N[C@@H](CC(C)C)C(=O)N[C@@H](CO)C(=O)NCC(=O)N[C@@H](CC(C)C)C(=O)N[C@@H](CC(C)C)C(=O)O [FLPIIGKLLSGLL]
MIC [2]: 7.23 µM (≈ 10 µg/mL) | MIC [3]: 3.61 µM (≈ 5 µg/mL) | MIC [4]: 14.5 µM (≈ 20 µg/mL) | MIC [5]: 0.867 µM (≈ 1.2 µg/mL) | MIC [6]: 7.23 µM (≈ 10 µg/mL) | MIC [7]: 1.81 µM (≈ 2.5 µg/mL) | MIC [8]: 1.81 µM (≈ 2.5 µg/mL) | MIC [9]: 14.5 µM (≈ 20 µg/mL) | MIC [10]: 7.23 µM (≈ 10 µg/mL) | MIC [11]: 28.9 µM (≈ 40 µg/mL) | MIC [12]: 3.61 µM (≈ 5 µg/mL) | MIC [13]: 3.61 µM (≈ 5 µg/mL) | MIC [14]: 1.81 µM (≈ 2.5 µg/mL) | MIC [15]: 7.23 µM (≈ 10 µg/mL) | MIC [16]: 28.9 µM (≈ 40 µg/mL)

SMILES: CC[C@H](C)[C@H](NC(=O)[C@@H](NC(=O)[C@@H]1CCCN1C(=O)[C@H](CO)NC(=O)[C@H](CC(C)C)NC(=O)[C@H](CCCCN)NC(=O)[C@H](CCCCN)NC(=O)[C@H](Cc1ccccc1)NC(=O)[C@H](CC(C)C)NC(=O)[C@H](CCCCN)NC(=O)[C@H](CCCCN)NC(=O)[C@H](CC(C)C)NC(=O)[C@H](CCCCN)NC(=O)[C@H](CCCCN)NC(=O)[C@H](CCCN=C(N)N)NC(=O)[C@H](Cc1ccccc1)NC(=O)[C@H](CCCN=C(N)N)NC(=O)[C@H](CCCCN)NC(=O)[C@H](Cc1ccccc1)NC(=O)[C@H](CCCN=C(N)N)NC(=O)CN)C(C)C)C(=O)N1CCC[C@H]1C(=O)N[C@@H](CC(C)C)C(=O)N[C@@H](CC(C)C)C(=O)N[C@@H](Cc1cnc[nH]1)C(=O)N[C@@H](CC(C)C)C(=O)NCC(=O)O [GRFKRFRKKLKKLFKKLSPVIPLLHLG]
MIC [17]: 4 µM (≈ 13 µg/mL) | MIC [18]: 4 µM (≈ 13 µg/mL) | MIC [6]: 4 µM (≈ 13 µg/mL) | MIC [8]: 4 µM (≈ 13 µg/mL) | MIC [19]: 4 µM (≈ 13 µg/mL) | MIC [11]: 5.66 µM (≈ 18.4 µg/mL) | MIC [20]: 4 µM (≈ 13 µg/mL) | MIC [16]: 4 µM (≈ 13 µg/mL) | MIC [21]: 4 µM (≈ 13 µg/mL) | MIC [22]: 2.83 µM (≈ 9.19 µg/mL)

The remaining lines, values ahead:

MIC [23]: 12.5 µM (≈ 22.9 µg/mL) | MIC [21]: 50 µM (≈ 91.8 µg/mL) | MIC [24]: ≥ 50 µM
SMILES: C[C@H](NC(=O)[C@H](C)NC(=O)[C@H](CCCCN)NC(=O)[C@H](Cc1ccccc1)NC(=O)[C@H](C)NC(=O)[C@H](CCCCN)NC(=O)[C@H](C)NC(=O)[C@H](Cc1c[nH]c2ccccc12)NC(=O)[C@H](C)NC(=O)[C@H](CCCCN)NC(=O)[C@H](C)NC(=O)[C@H](Cc1ccccc1)NC(=O)[C@H](CCCCN)NC(=O)[C@H](CCCCN)NC(=O)[C@H](C)NC(=O)[C@H](C)NC(=O)[C@@H](N)CCCCN)C(N)=O [KAAKKFAKAWAKAFKAA]

MIC [25]: ≥ 32.7 µM | MIC [26]: 23.1 µM (≈ 33.5 µg/mL) | MIC [6]: 5.86 µM (≈ 8.49 µg/mL) | MIC [8]: 5.86 µM (≈ 8.49 µg/mL) | MIC [27]: 5.86 µM (≈ 8.49 µg/mL) | MIC [28]: 2.76 µM (≈ 4 µg/mL) | MIC [16]: 11.7 µM (≈ 17 µg/mL) | MIC [29]: 5.86 µM (≈ 8.49 µg/mL)
SMILES: CC[C@H](C)[C@H](NC(=O)[C@H](CCCCN)NC(=O)[C@H](CCCCN)NC(=O)[C@H](Cc1ccccc1)NC(=O)[C@H](CC(C)C)NC(=O)[C@H](CCCCN)NC(=O)[C@@H](N)CCCCN)C(=O)N[C@@H](CC(C)C)C(=O)N[C@@H](CCCN=C(N)N)C(=O)N[C@@H](Cc1ccc(O)cc1)C(=O)N[C@@H](CC(C)C)C(N)=O [KKLFKKILRYL]

MIC [5]: > 64 µM | MIC [6]: > 64 µM | MIC [27]: 64 µM (≈ 142 µg/mL) | MIC [30]: 8 µM (≈ 17.8 µg/mL) | MIC [16]: > 64 µM | MIC [31]: ≥ 64 µM | MIC [32]: 4 µM (≈ 8.89 µg/mL)
SMILES: CC[C@H](C)[C@H](NC(=O)[C@@H]1CCCN1C(=O)[C@@H]1CCCN1C(=O)[C@H](CCCN=C(N)N)NC(=O)[C@H](Cc1ccccc1)NC(=O)[C@@H](N)CCCN=C(N)N)C(=O)N[C@@H](CCCN=C(N)N)C(=O)N[C@@H](CCCN=C(N)N)C(=O)N1CCC[C@H]1C(=O)N1CCC[C@H]1C(=O)N[C@H](C(=O)N[C@@H](CCCN=C(N)N)C(=O)N1CCC[C@H]1C(=O)N1CCC[C@H]1C(=O)N[C@@H](Cc1ccccc1)C(=O)N[C@@H](Cc1ccc(O)cc1)C(=O)N[C@@H](CCCN=C(N)N)C(=O)O)[C@@H](C)CC [RFRPPIRRPPIRPPFYR]

MIC [3]: 4 µM (≈ 6.88 µg/mL) | MIC [33]: 8 µM (≈ 13.8 µg/mL) | MIC [34]: 2 µM (≈ 3.44 µg/mL) | MIC [35]: 8 µM (≈ 13.8 µg/mL) | MIC [36]: 2 µM (≈ 3.44 µg/mL) | MIC [5]: 2 µM (≈ 3.44 µg/mL) | MIC [37]: 8 µM (≈ 13.8 µg/mL) | MIC [38]: 2 µM (≈ 3.44 µg/mL) | MIC [39]: 4 µM (≈ 6.88 µg/mL) | MIC [40]: 1 µM (≈ 1.72 µg/mL) | MIC [41]: 8 µM (≈ 13.8 µg/mL) | MIC [42]: 4 µM (≈ 6.88 µg/mL) | MIC [43]: 4 µM (≈ 6.88 µg/mL) | MIC [16]: 16 µM (≈ 27.5 µg/mL) | MIC [21]: 4 µM (≈ 6.88 µg/mL) | MIC [44]: 2 µM (≈ 3.44 µg/mL) | MIC [45]: 4 µM (≈ 6.88 µg/mL)
SMILES: NC(=O)[C@H](Cc1ccccc1)NC(=O)[C@H](CCCN=C(N)N)NC(=O)[C@H](Cc1c[nH]c2ccccc12)NC(=O)[C@H](CCCN=C(N)N)NC(=O)[C@H](Cc1c[nH]c2ccccc12)NC(=O)[C@H](Cc1c[nH]c2ccccc12)NC(=O)[C@H](Cc1c[nH]c2ccccc12)NC(=O)[C@H](CCCN=C(N)N)NC(=O)[C@H](Cc1c[nH]c2ccccc12)NC(=O)[C@@H](N)CCCN=C(N)N [RWRWWWRWRF]
